Results on ten molecules are retold here after patent US20240299348A1, “MODULATORS OF TRPML, THEIR COMPOSITIONS AND METHODS OF USE” (Caraway Therapeutics, Inc., priority 2021, published 2024).

Structures are written as SMILES. Like-named read-outs stand apart in the source and are kept apart here. Bounds are passed on as bounds.

The target of assay [1] is T1, hTRPML1 (Homo sapiens, UniProt Q9GZU1). In words: TRPML1 fluorescent (Fluo-4) assay. In kind it is cell-based. The settings on record: activation; HEK-293 Trex cells expressing hTRPML1; read-out: Secondary Screening: Fluo-4: hTRPML1: EC50. Also noted: Secondary Screening: Fluo-4: hTRPML1: EC50 (M); HEK-293 Trex cells expressing hTRPML1. The procedure: (§1) HEK-293 Trex cells were stably transfected with a construct consisting of the human coding sequence for TRPML1 cloned into the […] plasmid pCDNA5 T/O. Mutations were introduced into the TRPML1 sequence to facilitate expression on the cell surface (Silvia Vergarajauregui, Rosa Puertollano Traffic. 2006 March; 7(3): 337-353). Briefly, the cells are cultured in 150 mm round tissue culture dishes containing 20 mL of media. The day before the assay the cells are rinsed with DPBS—Ca—Mg and then treated briefly with Trypsin-EDTA. The Trypsin-EDTA is diluted with growth media, and cells are counted. 38×10^6 cells are re-plated into 150 mm round tissue culture dishes in media containing 0.5 ug/mL doxycycline to induce expression of hTRPML1.
The day of the experiment cells are lifted from the plates as above and collected by centrifugation. The cells are then suspended in dye loading buffer consisting of Ringer's solution supplemented with 0.1% Pluronic Acid and 1 micromolar Fluo4-AM dye. Cells are loaded for ˜60 minutes in the dark with occasional mixing. The cells are collected by centrifugation, the loading media aspirated, and the cells resuspended in 25 mL Ringer's solution and incubated ˜60 minutes in the dark. The cells are again collected by centrifugation, rinsed in Ringer's Solution and resuspended to 0.2×10^6 cells/mL in modified Ringer's solution containing 10 mM calcium.
Compounds are dissolved to a concentration of 10 millimolar with DMSO. Compound plates are created by dispensing compounds into 384 well black wall clear bottom plates (Greiner 781091). Positive and negative controls are included on each plate. Typically, different amounts of each compound are tested ranging from 100 nanoMoles (20 micromolar final concentration) decreasing in half-log steps to 31 picoMoles (6 nanomolar final concentration). Each concentration is typically tested in triplicate.
(§2) 50 microliters of dye-loaded cells are dispensed into each well of the compound assay plate created above. The fluorescence in each well is then determined with an excitation wavelength of 480 nm and an emission wavelength of 540 nm using either a Molecular Devices SpectraMax multimode plate reader or a Hamamatsu FDSS/uCell plate imager.
(§3) The resulting fluorescence for each well is exported as an ascii file and loaded into our LIMS for analysis. The percent activity of each compound at each concentration is determined by comparison to the positive and negative control wells included in each plate.
(§4) EC50 values were calculated using a non-linear regression of Prism.

The next assay has as its target T2, hTRPML2 (Homo sapiens, UniProt Q8IZK6).
T2 construct: expressed in transfected cells; host or cells: HEK-293 Trex (by analogy, 'performed as above')
T2 sequence (Q8IZK6 1-566): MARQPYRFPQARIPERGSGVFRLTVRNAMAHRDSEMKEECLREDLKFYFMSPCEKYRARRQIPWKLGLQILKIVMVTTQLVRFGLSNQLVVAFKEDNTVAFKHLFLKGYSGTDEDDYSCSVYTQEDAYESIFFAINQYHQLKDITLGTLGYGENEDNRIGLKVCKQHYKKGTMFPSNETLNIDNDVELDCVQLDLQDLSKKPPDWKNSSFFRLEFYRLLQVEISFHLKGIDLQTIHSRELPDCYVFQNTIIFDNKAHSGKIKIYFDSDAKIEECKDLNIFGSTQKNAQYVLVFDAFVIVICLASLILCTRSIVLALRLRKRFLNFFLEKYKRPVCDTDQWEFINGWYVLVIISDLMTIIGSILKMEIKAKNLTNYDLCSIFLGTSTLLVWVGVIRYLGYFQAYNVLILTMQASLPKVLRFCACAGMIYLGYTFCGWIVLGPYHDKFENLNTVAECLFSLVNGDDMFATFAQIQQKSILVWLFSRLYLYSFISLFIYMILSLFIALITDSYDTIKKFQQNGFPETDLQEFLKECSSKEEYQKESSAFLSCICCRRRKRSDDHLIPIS
Nature of the assay: TRPML2 fluorescent (Fluo-4) assay. The format is cell-based. How it is done:
(§5) Assays for TRPML2 and TRPML3 were performed as above for TRPML1, by substituting the appropriate TRPML2 or TRPML3 subtype for the TRPML1.
as §4

The next assay deals with T3, hTRPML3 (Homo sapiens, UniProt Q8TDD5).
T3 construct: expressed in transfected cells; host or cells: HEK-293 Trex (by analogy, 'performed as above')
T3 sequence (Q8TDD5 1-553): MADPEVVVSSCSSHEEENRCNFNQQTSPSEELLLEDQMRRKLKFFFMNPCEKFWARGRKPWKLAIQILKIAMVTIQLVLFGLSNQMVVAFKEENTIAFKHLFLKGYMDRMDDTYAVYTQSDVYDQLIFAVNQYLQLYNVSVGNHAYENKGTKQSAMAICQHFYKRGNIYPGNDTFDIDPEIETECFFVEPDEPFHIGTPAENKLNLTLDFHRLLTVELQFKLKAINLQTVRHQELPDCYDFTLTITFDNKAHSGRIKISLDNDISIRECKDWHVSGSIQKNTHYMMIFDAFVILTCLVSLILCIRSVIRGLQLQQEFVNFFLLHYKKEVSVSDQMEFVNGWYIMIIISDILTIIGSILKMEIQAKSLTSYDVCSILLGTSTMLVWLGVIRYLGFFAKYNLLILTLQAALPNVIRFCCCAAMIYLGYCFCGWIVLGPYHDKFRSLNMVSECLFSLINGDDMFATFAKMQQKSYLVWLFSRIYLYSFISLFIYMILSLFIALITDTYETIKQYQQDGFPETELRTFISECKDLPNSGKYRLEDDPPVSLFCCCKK
In words: TRPML3 fluorescent (Fluo-4) assay. In kind it is cell-based. The procedure: as §5, §4

In assay [2] the test system is HeLa cells with the NPC2 gene knocked out. Nature of the assay: Total hexosylceramides in HeLa cells with NPC2 gene knocked out. In kind it is cell-based. The settings on record: NPC2 knockout HeLa. The procedure: (§6) HeLa cells with the NPC1 gene knocked out via CRISPR-generated frameshifting indels were grown in standard cell culture conditions (DMEM high glucose with 10% FBS and penicillin/streptomycin). Cells were treated with the indicated concentrations of TRPML1 activators for 48 hours; media and compound were refreshed every 24 hours (FIG. 1). Two replicates per treatment were used. Cells were pelleted in PBS, frozen, and shipped to the Medical University of South Carolina (MUSC) for lipid quantitation by mass spectrometry. Lipid quantities were normalized to total inorganic phosphate in the cell sample as assessed by mass spectrometry. […] Statistical significance versus DMSO (p values indicated above) unpaired t-test.
Shown in FIG. 2 are results from the same experiment described in FIG. 1, but using HeLa cells with the NPC2 gene knocked out via CRISPR.

The subject of assay [3] is HeLa cells with the NPC1 gene knocked out. Nature of the assay: Total hexosylceramides in HeLa cells with NPC1 gene knocked out. The format is cell-based. Conditions: NPC1 knockout HeLa, FIG. 1. How it is done: as §6
Assay [4] has as its system mIMCD-3 cells with the PKD1 gene knocked out. In words: Forskolin-induced cyst swelling, in vitro model of Polycystic Kidney Disease. In kind it is cell-based, murine. Conditions: 5 uM forskolin, 72 hours of compound treatment; DMSO 100%+/−7.1. How it is done: Shown in FIG. 3 are results from an experiment where mIMCD-3 cells with the PKD1 gene knocked out via CRISPR-generated frameshifting indels were seeded into 384 well plates containing Matrigel and cultured in standard growth media for 4 days until they formed spherical organoid cysts as described in Reference 1 (Booij et al., SLAS Discov. 2017 September; 22(8):974-984). TRPML1 activators and vehicle were added to the cells at the indicated concentrations, in combination with 5 uM forskolin to induce cyst swelling. Four replicates per treatment were used. Approximately half of the media in each well was replaced with fresh media containing compounds and forskolin every 24 hours. After 72 hours of compound treatment, the cysts were fixed and stained for nuclei (DAPI) and actin (fluorescent-conjugated phalloidin). The ability of the TRPML1 activators to inhibit forskolin-induced cyst swelling was assessed using the 2-dimensional cross-sectional area of each cyst as measured using a high content microscope with a 4× objective, and analyzed using proprietary Ominer software. Cyst areas were averaged within each well and normalized to the vehicle control (DMSO).

In the next assay the target is TRPML1 (Homo sapiens, UniProt Q9GZU1, L15A/L16A). In words: GCaMP surface assay. The format is cell-based.
For assay [5], the target named is T1, hTRPML1. In words: TRPML1 fluorescent (Fluo-4) assay. In kind it is cell-based. Also noted: fused on or other part: Possibly a GCaMP calcium sensor fused on, for the parenthetic 'GCaMP surface assay' value. The procedure:
as §1, with “38×10^6 cells are re-plated into 150 mm round tissue culture dishes in media containing 0.5 ug/mL doxycycline to induce expression of hTRPML1.” left out
as §2, §3, §4

For another assay, the system named is TRPMLs. The settings on record: literature report; cited from earlier work.
Setting [6] is: activation, read-out: Secondary Screening: Fluo-4: hTRPML2: EC50.
Setting [7] is: activation, read-out: Secondary Screening: Fluo-4: hTRPML3: EC50.

T1 sequence (Q9GZU1 whole entry L15A/L16A/L577A/L578A, form open): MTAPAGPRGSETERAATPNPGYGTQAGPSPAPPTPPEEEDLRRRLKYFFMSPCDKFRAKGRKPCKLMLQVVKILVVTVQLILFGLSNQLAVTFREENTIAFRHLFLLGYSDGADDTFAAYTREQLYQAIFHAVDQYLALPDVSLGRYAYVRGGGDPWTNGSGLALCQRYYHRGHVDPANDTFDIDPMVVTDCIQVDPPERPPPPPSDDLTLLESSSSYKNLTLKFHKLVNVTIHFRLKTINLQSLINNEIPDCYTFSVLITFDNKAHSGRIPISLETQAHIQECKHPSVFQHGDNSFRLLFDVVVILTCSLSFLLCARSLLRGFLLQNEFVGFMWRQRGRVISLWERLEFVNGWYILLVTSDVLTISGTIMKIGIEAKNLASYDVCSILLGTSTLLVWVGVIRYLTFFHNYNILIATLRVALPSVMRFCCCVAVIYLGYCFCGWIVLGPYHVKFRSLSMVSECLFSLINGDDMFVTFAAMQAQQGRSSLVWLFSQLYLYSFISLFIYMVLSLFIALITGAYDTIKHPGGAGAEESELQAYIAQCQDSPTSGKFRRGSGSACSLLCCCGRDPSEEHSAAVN
Sequence of TRPML1 (Q9GZU1 with tags, fused parts or gaps L15A/L16A): as the sequence (Q9GZU1 whole entry L15A/L16A/L577A/L578A, form open) above

As a reminder, the EC50 is the concentration at which the effect is half-maximal. As to `CN(C)S(=O)(=O)c1ccc(S(=O)(=O)N[C@@H]2CCCCC[C@H]2N2CCN(c3ccc(Cl)cc3F)CC2)cc1` (relative stereo) [Compound 120, trans-N^1-(2-(4-(4-chloro-2-fluorophenyl)piperazin-1-yl)cycloheptyl)-N^4,N^4 dimethylbenzene-1,4-disulfonamide], the EC50 at hTRPML1 [1] was less than 300 nM; at hTRPML2 (setting [6]), 1000 to 5000 nM; on hTRPML3 (setting [7]) it was 300 to 1000 nM.
Take `CN(C1CCN(c2ccccc2F)C1)[C@H]1CCCC[C@@H]1NS(=O)(=O)c1ccc(S(=O)(=O)N(C)C)cc1` (relative stereo) [Compound 121, trans-N^1-(2-((1-(2-fluorophenyl)pyrrolidin-3-yl)(methyl)amino)-cyclohexyl)-N^4,N^4-dimethylbenzene-1,4-disulfonamide]: the values for the EC50 at hTRPML1 [1], on hTRPML2 (setting [6]) and at hTRPML3 (setting [7]) were 1000 to 5000 nM, 1000 to 5000 nM and 300 to 1000 nM, respectively.
Turning to `CN(C)S(=O)(=O)c1ccc(S(=O)(=O)N[C@@H]2CCCCC[C@@H]2N2CCN(c3ccc(Cl)cc3F)CC2)cc1` (relative stereo) [Compound 122, Cis-N^1-(2-(4-(4-chloro-2-fluorophenyl)piperazin-1-yl)cycloheptyl)-N^4,N^4-dimethylbenzene-1,4-disulfonamide], the results for the EC50 on hTRPML1 [1], on hTRPML2 (setting [6]) and on hTRPML3 (setting [7]) were less than 300 nM, 1000 to 5000 nM and 300 to 1000 nM, respectively.
On to `CN(c1ccccc1NS(=O)(=O)c1ccc(S(=O)(=O)N(C)C)cc1)C1CCN(c2ccc(Cl)cc2F)C1` (stereo not drawn) [Compound 101, N^1-(2-((1-(4-chloro-2-fluorophenyl)pyrrolidin-3-yl)(methyl)amino)phenyl)-N^4,N^4-dimethylbenzene-1,4-disulfonamide], for which, in [2] (48 hours treatment, DMSO 6.45+/−0.28), the “total HexosylCeramides” value is given as 3.48+/−0.20 HexCer/nmol Pi/sample. Besides, the “total hexosylCeramides compared with DMSO vehicle (in words)” value in assay [2] (FIG. 2) and in assay [3] was “reduced” in each case. Also, the EC50 at hTRPML1 [1] is 300 to 1000 nM; on hTRPML2 (setting [6]) it was less than 300 nM; on hTRPML3 (setting [7]), less than 300 nM. Besides, the “cyst area normalized to the vehicle control (DMSO)” value (from here on “cyst area normalized”) in assay [4] amounted to 51.2%+/−1.6.
For `CN(c1ccccc1NS(=O)(=O)c1ccc(S(C)(=O)=O)cc1)C1CCN(c2ccc(Cl)cc2F)C1` (stereo not drawn) [Compound 113, N-(2-((1-(4-Chloro-2-fluorophenyl)pyrrolidin-3-yl)(methyl)amino)phenyl)-4-(methylsulfonyl)benzene-sulfonamide], the EC50 is 300 to 1000 nM on hTRPML1 [1], more than 5000 nM at hTRPML2 (setting [6]) and 1000 to 5000 nM on hTRPML3 (setting [7]).
On the same counts, the results for `CN(c1ccccc1NS(=O)(=O)c1ccc(S(=O)(=O)N(C)C)cc1)C1CCN(C(=O)Oc2ccccc2)C1` (stereo not drawn) [Compound 123, Phenyl 3-((2-((4-(N,N-dimethylsulfamoyl)phenyl)sulfonamido)phenyl)(methyl)amino)pyrrolidine-1-carboxylate] are 1000 to 5000 nM, 1000 to 5000 nM and 300 to 1000 nM.
In the case of `CN(c1ccccc1NS(=O)(=O)c1ccc(S(=O)(=O)N(C)C)cc1)C1CCN(C(=O)OC2CCCCC2)C1` (stereo not drawn) [Compound 124, cyclohexyl 3-((2-((4-(N,N-dimethylsulfamoyl)phenyl)sulfonamido)phenyl)(methyl)amino)pyrrolidine-1-carboxylate], the EC50 is 300 to 1000 nM at hTRPML1 [1], 1000 to 5000 nM at hTRPML2 (setting [6]) and 300 to 1000 nM on hTRPML3 (setting [7]).
`CN(C)S(=O)(=O)c1ccc(S(=O)(=O)Nc2ccccc2N2CCN(c3ccc(Cl)cc3F)CC2)cc1` [Compound 125] came in with an EC50 on TRPML1 of 453 nM. In addition, the “cyst area normalized” value in assay [4] is recorded as 69.6%+/−4.4.
Regarding `CC1CC(C)(C)N(C(=O)CN2C(=O)c3ccccc3C2=O)c2ccccc21` (stereo not drawn) [Compound 126, reference compound], the “TRPML1 activation EC50 (Table 2, class)” value at hTRPML1 [5] (Table 2 key) is listed as “B/C/D”. In addition, the EC50 at hTRPML1 [5] (read-out: TRPML1 activation EC50 (Table 2, number)) was found to be 3520 nM; at hTRPML2 (read-out: TRPML2 activation EC50 (Table 2, number)), 5410 nM; on hTRPML3 (read-out: TRPML3 activation EC50 (Table 2, number)), 1580 nM. Besides, the “TRPML2 activation EC50 (Table 2, class)” value on hTRPML2 (Table 2 key) is listed as “B/C/D”. The “cyst area normalized” value in assay [4] amounted to 72.3%+/−2.5. In the assay on TRPMLs, the “concentration needed to effectively activate TRPMLs” value was approximately 10 µM.
On to `Cc1ccc(S(=O)(=O)Nc2ccccc2N2CCCCC2)s1` [Compound 127, reference compound], for which the EC50 on TRPML1 was 2640 nM. Also, the “cyst area normalized” value in assay [4] is reported as 79.6%+/−3.8.
